Experimental data as given in a melting point compilation (Tetko et al.; mined from patent text by program, amines drawn as free bases though some values may be those of a salt).

Row | melting point [°C] | SMILES
1 | > 275 | CS(=O)(=O)c1ccc(-c2cc(-c3nc4ccccc4c(=O)n3-c3ccc(Cl)cc3)sc2N2CCOCC2)cc1
2 | 152 to 154 | Cc1cc(C)c2ncc(N)c(-c3ccccc3Cl)c2c1
3 | 220 to 224 | O=C(c1ccccc1)c1cc([N+](=O)[O-])ccc1-n1nc(CN2C(=O)c3ccccc3C2=O)cc1CN1C(=O)c2ccccc2C1=O
4 | 31 to 32 | COC(=O)NCCCCC1CCSS1 (centres undefined)
5 | 93 | COc1ccc(CNc2cc(F)cc(CO)c2)cc1
6 | 101 to 104 | OCC(O)Cc1c(Cl)cc2c(c1OCc1ccccc1)CCC2 (centres undefined)
7 | 117 to 120 | N#CN1CCC(Oc2c(F)c(F)c(F)c(F)c2F)(c2ccccc2)CC1
8 | 91 to 92 | CC(=Cc1ccc(C(=O)O)cc1)c1cc2c(cc1C)C(C)(C)CCC2(C)C
9 | 295 to 298 | CN(C)c1nc2n(n1)CC1=CSC(=O)C1=N2
10 | 119 to 121 | COc1ccc(C(=O)C#CC(=O)O)c(OC)c1OC
11 | 155 to 161 | CC(=O)OCC(C)C1CCC2C3CC=C4CC(OC5CCCCO5)CC(OC5CCCCO5)C4(C)C3CCC12C (centres undefined)
12 | 160 to 163 | C1=Cc2cc3ccccc3cc2C1
13 | 146 to 148 | COc1ccc(-c2ccnc3c(C(=O)c4cccs4)cnn23)c(OC)c1
14 | 184 to 186 | Oc1cccc2nscc12
15 | 187 to 189 | OC(COc1cccc2[nH]nnc12)CN1CCC(COc2ccccc2)CC1 (centres undefined)
16 | 124 to 127 | CNC(=O)OC(C(Oc1ccc(Cl)cc1Cl)n1cncn1)C(C)(C)CF (centres undefined)
17 | 163 to 166 | COc1cccc2c(CCCNC3COc4c(F)ccc(C(N)=O)c4C3)coc12 (centres undefined)
18 | 148 to 150 | O=C1CCC(N2Cc3c(OCc4ccc(Cn5cnc(C(F)(F)F)c5)cc4)cccc3C2=O)C(=O)N1 (centres undefined)
19 | 265 to 267 | O=C1C(=O)c2ccccc2C2=C1SCC1(CCN(C(=O)c3cn4c5c(cccc35)CCC4)CC1)O2
20 | 102 | Cc1ccc(CNc2ccc3c(C#N)cccc3n2)o1
21 | 142 to 143 | Cc1ccccc1CN1CCN(C(=O)c2ccc(N(CCOC(C)C)C(=O)CCl)cc2)CC1
22 | 255 to 259 | CC(C)NC1=NS(=O)(=O)c2ccc(Cc3nc(C4CC4)no3)cc2N1
23 | 112 to 115 | CN(C)C(=S)C(O)c1ccccc1C(F)(F)F (centres undefined)
24 | 156 to 157 | CCC[C@H]1CC[C@H](c2ncc(C(=O)OCC)c(O)n2)CC1
25 | 151 to 153 | N#Cc1ccccc1Sc1ccc([N+](=O)[O-])cc1

Row | melting point [°C] | SMILES
26 | 90 to 94 | CCCCCCCCOc1cccc2c1C(=O)c1cccc(OCCCCCCCC)c1C2=O
27 | 185 to 190 | CCCCCc1nc2ccc(C(=O)O)cc2c(=O)o1
28 | > 250 | O=C(O)c1ccc2cc(Cl)ccn2c1=O
29 | 103 | CC(=O)Nc1cc(C(F)(F)F)ccc1SCC#N
30 | 141 to 144 | CC1=NN=C(C=Cc2ccc(F)cc2)c2cc3c(cc2C1)OCO3
31 | > 300 | O=c1[nH]c(-c2csc3ccccc23)nc2ccc(N3CCOCC3)cc12
32 | 188 to 189 | CC(C(N)=O)C1CC(c2ccc(N3CCSCC3)c(F)c2)=NO1 (centres undefined)
33 | 105 | CN1C(=O)CC(c2ccccc2)C1C(O)c1ccc(Br)s1 (centres undefined)
34 | 156 | C[Si](C)(C)OC(C(N)=O)(C(N)=O)c1ccc(Cl)c(Cl)c1
35 | 243 | Cc1ccc(-n2ncc(C(=O)Nc3ccc(N4CCC(N5CCOCC5)CC4)c(C#N)c3)c2C)cc1
36 | 88 to 90 | CCN(C1CC(C)(C)Oc2ccc(OCCCCC(=O)NCCO)cc21)S(C)(=O)=O (centres undefined)
37 | 161 to 162 | O=C(O)C(=O)c1ccc(SCCOc2ccc3ccccc3c2)cc1
38 | > 250 | COc1cc2ncc(C#N)c(Nc3ccc(O)cc3C)c2cc1OC
39 | 182 to 184 | CN1CCN(C2=Nc3ccccc3Nc3nn(C)nc32)CC1
40 | 121 to 122 | NC(=O)C1(CCCN2CCCCC2)CC=CCC1c1ccccc1 (centres undefined)
41 | 204 to 205 | CCOC(=O)Nc1nc(-c2ccccc2)c(-c2nc3ccccc3c(=O)n2-c2cccc(OC)c2)s1
42 | 79 to 81 | Cc1nc2ccccc2c(=O)o1
43 | 36 to 37 | CCOc1cncc(I)n1
44 | 119 to 120 | COC(=O)CSc1ccc(N2CC(CNC(C)=O)OC2=O)cc1F (centres undefined)
45 | 273 to 274 | N#CCCc1cc(F)c2ncc(C(=O)NCc3ccc(Cl)cc3)c(O)c2c1
46 | 181 to 182 | Nc1ccc(C(=O)N2CCNC(=O)C2c2cccs2)cc1 (centres undefined)
47 | 255 | COCc1c(C(=O)NC(C)C)ncc2[nH]c3cccc(Oc4ccc(Cl)cc4)c3c12
48 | 129 to 132 | COc1c(C(=O)O)cc(Cl)c2c1CCCN2
49 | 142 to 144 | COc1ccc(C(C#Cc2ccccc2)CC(=O)Nc2nccs2)cc1OC1CCCC1 (racemic)
50 | 213 | O=c1[nH]c2ccccc2c(=O)n1CCN1CCC(C(O)c2ccc(F)cc2)CC1 (centres undefined)

Row | melting point [°C] | SMILES
51 | 129 to 131 | CCCCOCCOc1ccc(-c2ccc3c(c2)C=C(C(=O)O)CCN3c2ccccc2)cc1
52 | 172 to 173 | CN(C)C(=O)Cc1ccccc1Nc1ccnc2cc(C(F)(F)F)ccc12
53 | > 200 | N#Cc1c(N2CCc3ccccc3CC2)nc2[nH]ccn2c1=O
54 | > 300 | Cc1cc(Cl)cc(Cl)c1CNc1c(N[C@H](C)C(C)(C)C)c(=O)c1=O
55 | 244 to 245 | O=c1[nH]c(-c2ccccc2)cn1S(=O)(=O)c1ccc2c(c1)CCN2Cc1cccnc1
56 | 254 | Cc1ccccc1NC(=O)CN1C(=O)c2ccccc2C1=O
57 | 104 to 105 | C[C@@H](O)CNC(=O)N1CC(Oc2ccc(C(C)(C)C)cc2)C1
58 | 55 to 56 | CCOC(=O)c1c[nH]nc1OC(C)C
59 | 192 to 194 | CS(=O)(=O)c1ccc(-c2nn(CC#N)c(C(F)(F)F)c2-c2ccc(F)cc2)cc1
60 | 64 to 66 | COc1ccc2c(c1)CC(COS(=O)(=O)c1ccc(C)cc1)CC2 (centres undefined)
61 | 173 | COc1cc2c(c3c1c(=O)c1cc4ccccc4cc1n3C)[C@H](OC(=O)N(C)C)[C@H](OC(=O)N(C)C)C(C)(C)O2
62 | 175 to 180 | OC(=S)CC(c1ccc(OCc2ccc3ccccc3n2)cc1)c1ccc(OCc2ccc3ccccc3n2)cc1
63 | 280 to 281 | CSC1=NN=C(c2ccc([N+](=O)[O-])cc2)c2cc3c(cc2C1)OCO3
64 | 193 to 195 | O=C(c1cccs1)c1cnn2c(-c3cccs3)ccnc12
65 | 114 to 121 | Cc1cc(SCC(=O)NCCc2ccccc2)nc(N)n1
66 | 151 to 153 | CCC(C(O)C(C)C(O)C(C)CCc1ccc(C)c(O)c1C(=O)O)C1OC(CC)(C2CCC(O)(CC)C(C)O2)CC1C (centres undefined)
67 | 250 to 252 | CNC(=O)[C@H](Cc1cncn1C)NC(=O)C(Cc1cccc2ccccc12)Cc1cccc2ccccc12
68 | 206 to 208 | CC1=C(Cc2ccc(C(=O)O)cc2)C(=O)C2C=CC=CC2C1=O (centres undefined)
69 | 160 to 161 | CN1C(=O)C(=O)c2cc(S(=O)(=O)N3CCC[C@H]3COc3ccccc3)ccc21
70 | 207 to 209 | O=C1COc2ccc(CN3CCN(c4ccccc4)CC3)cc2N1
71 | 151 to 152 | CCOc1nnc(-c2ccc(C(F)(F)F)cc2)[nH]1
72 | 212 to 213 | CCOC(=O)c1cn(CC)c2nc(N3CCC(NCC(C)=O)C3)c(F)cc2c1=O (centres undefined)
73 | 198 to 200 | CCSc1ccc(C(=O)NCc2ccc3c(c2)C(=O)N(C2CCC(=O)NC2=O)C3=O)nc1 (centres undefined)
74 | 195 | CSCCC(NC(=O)c1ccc(COc2cccnc2)cc1Oc1ccccc1)C(=O)O (centres undefined)
75 | 209 to 213 | Cc1sc2c(c1C(=O)c1ccc(S(C)=O)cc1)CCC2C(=O)O (centres undefined)

Row | melting point [°C] | SMILES
76 | 131 to 134 | CCOC(=O)c1cn(CCN(CC)CC)c2oc(CN3CCOCC3)cc2c1=O
77 | 145 to 147 | Cc1cn(-c2ccc(S(N)(=O)=O)c(F)c2)c(-c2ccc(-c3cscn3)cc2)n1
78 | 184 | COc1cccc(C(=O)NCCc2ccc(-c3ccc(OC(C)(C)C(=O)O)cc3)cc2)c1OC
79 | 294 to 296 | NC(=O)c1cn(-c2ccc(F)cc2)c2cc(Cl)ccc2c1=O
80 | 251 to 252 | Cc1ccc(-c2c(C(=O)Nc3nccs3)nc(-c3cccc4ccccc34)n2C)cc1
81 | 147 to 149 | COC(=O)CCCC#Cc1cc(Cl)ccc1NS(=O)(=O)c1sc(NC(C)=O)nc1C
82 | 99 to 101 | CC(C)(C)OC(=O)NC1(CCC(=O)O)CC=CO1 (centres undefined)
83 | 127 | O=S1(=O)c2cccc3cccc(c23)N1CCN1CCC(CC2CCc3ccccc32)CC1 (centres undefined)
84 | 214 to 215 | O=C1CCC(c2ccc(-n3cnc(CO)c3)cc2)=NN1
85 | 162 to 163 | O=C(NCCO)c1cccc(-c2ccc3c(c2)N(c2cccc(Cl)c2Cl)CC3)c1
86 | 192 to 193 | CC(C)n1nc(-c2sc(C(=O)NCc3ccncc3)nc2-c2ccccc2)ccc1=O
87 | 213 to 214 | CC(C)(C)OC(=O)N1CCC2(CC1)C(=O)NCN2c1ccccc1
88 | 130 to 131 | CCC1(CC)OC(c2ccc(S(C)(=O)=O)cc2)=C(Br)C1=O
89 | 190 | O=C(CC1COC1)N[C@H]1CC[C@H](CCN2CCN(c3cccc4c3OCO4)CC2)CC1
90 | 62 to 65 | Cc1ccccc1-c1ccc(Cl)cc1C#N
91 | 214 to 216 | CCn1cc(C(=O)O)c(=O)c2cc(F)c(N3CCC(NS(=O)(=O)c4ccc(N)cc4)C3)c(F)c21 (centres undefined)
92 | 120 to 122 | O=C(O[C@H]1[C@H](OC(=O)c2ccccc2)[C@@H](CO)O[C@@H]1CO)c1ccccc1
93 | 92 to 93 | CN(C)C1CCN(C2c3ccccc3Oc3ccccc32)CC1
94 | 179 to 181 | NS(=O)(=O)c1ccc(NC(=O)CNc2ccccc2)c(Br)c1
95 | 116 to 118 | O=C1CCCC(=O)C1=CC=Cc1ccccc1
96 | 122 to 124 | COC(=O)[C@H](CCSC)NC(=O)c1ccc(/C=C(/Cn2ccnc2)c2nccs2)cc1-c1ccccc1
97 | 186 to 187 | CC(=O)c1ccc(N2CCN(Cc3cn4cc(Cl)ccc4n3)CC2)cc1

Row | SMILES | melting point [°C]
98 | Oc1cccc2c1CC1CNCC2C1 (centres undefined) | 106 to 108
99 | CC1C(=NO)CC2(O)C3Cc4ccc(O)c5c4C2(CCN3C)C1O5 (centres undefined) | 115 to 116
